# Measurements published in ChEMBL document CHEMBL4808191, “Design, synthesis and biological evaluation of novel deoxyvasicinone-indole as multi-target agents for Alzheimer's disease” (Bioorg Med Chem Lett, 2021).
# Calls of active or inactive are those of the source. No cut-off for these calls is given here.
# What was measured:
# Acetylcholinesterase = Acetylcholinesterase (Electrophorus electricus, UniProt O42275); assay: Inhibition of electric eel AChE by Ellman's method
# [1] = target: Amyloid-beta precursor protein (Homo sapiens, UniProt P05067)
# Sequence of Amyloid-beta precursor protein (P05067 whole entry): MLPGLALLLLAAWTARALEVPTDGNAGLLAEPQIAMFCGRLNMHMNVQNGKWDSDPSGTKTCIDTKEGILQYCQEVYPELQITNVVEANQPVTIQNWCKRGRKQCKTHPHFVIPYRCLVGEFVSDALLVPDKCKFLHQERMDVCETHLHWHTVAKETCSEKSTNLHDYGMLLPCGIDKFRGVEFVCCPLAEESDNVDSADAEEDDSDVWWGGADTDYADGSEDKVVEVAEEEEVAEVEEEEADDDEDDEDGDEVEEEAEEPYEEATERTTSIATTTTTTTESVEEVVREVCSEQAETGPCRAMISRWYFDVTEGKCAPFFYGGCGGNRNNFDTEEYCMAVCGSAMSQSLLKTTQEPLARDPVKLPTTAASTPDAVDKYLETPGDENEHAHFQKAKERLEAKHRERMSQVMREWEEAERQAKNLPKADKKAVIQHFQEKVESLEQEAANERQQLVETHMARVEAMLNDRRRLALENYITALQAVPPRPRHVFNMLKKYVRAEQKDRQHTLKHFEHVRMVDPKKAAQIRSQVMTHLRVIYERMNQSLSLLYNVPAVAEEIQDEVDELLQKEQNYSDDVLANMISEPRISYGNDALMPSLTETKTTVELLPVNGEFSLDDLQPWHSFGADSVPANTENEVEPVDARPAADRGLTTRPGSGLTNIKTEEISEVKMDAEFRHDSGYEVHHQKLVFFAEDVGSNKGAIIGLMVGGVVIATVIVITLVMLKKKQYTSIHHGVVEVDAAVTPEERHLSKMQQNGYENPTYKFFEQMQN
# Cholinesterase = Cholinesterase (Equus caballus, UniProt P81908)
# Sequence of Cholinesterase (P81908 whole entry): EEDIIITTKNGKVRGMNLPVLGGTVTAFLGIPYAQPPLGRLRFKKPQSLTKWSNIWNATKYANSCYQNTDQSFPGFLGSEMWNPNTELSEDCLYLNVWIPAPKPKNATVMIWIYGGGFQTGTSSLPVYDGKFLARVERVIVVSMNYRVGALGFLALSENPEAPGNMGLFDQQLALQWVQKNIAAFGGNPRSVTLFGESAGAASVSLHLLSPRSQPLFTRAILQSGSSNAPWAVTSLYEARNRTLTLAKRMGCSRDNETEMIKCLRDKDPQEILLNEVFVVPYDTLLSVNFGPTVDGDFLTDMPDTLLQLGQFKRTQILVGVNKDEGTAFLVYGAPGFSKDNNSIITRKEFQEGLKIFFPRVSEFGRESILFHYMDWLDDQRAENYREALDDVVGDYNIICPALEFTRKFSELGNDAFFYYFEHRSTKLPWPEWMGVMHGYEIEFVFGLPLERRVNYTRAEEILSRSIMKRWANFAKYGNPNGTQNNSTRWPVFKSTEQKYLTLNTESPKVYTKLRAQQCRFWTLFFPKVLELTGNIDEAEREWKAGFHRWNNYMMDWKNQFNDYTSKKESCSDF
# Description: Inhibition of equine serum BuChE by Ellman's method
# [2] = target: Acetylcholinesterase (Homo sapiens) (UniProt P22303); assay: Inhibition of AChE (unknown origin)-induced amyloid beta(1 to 42) aggregation by thioflavin-T fluorescence assay; conditions: concentration not given here
# Sequence of Acetylcholinesterase (Homo sapiens) (P22303 whole entry): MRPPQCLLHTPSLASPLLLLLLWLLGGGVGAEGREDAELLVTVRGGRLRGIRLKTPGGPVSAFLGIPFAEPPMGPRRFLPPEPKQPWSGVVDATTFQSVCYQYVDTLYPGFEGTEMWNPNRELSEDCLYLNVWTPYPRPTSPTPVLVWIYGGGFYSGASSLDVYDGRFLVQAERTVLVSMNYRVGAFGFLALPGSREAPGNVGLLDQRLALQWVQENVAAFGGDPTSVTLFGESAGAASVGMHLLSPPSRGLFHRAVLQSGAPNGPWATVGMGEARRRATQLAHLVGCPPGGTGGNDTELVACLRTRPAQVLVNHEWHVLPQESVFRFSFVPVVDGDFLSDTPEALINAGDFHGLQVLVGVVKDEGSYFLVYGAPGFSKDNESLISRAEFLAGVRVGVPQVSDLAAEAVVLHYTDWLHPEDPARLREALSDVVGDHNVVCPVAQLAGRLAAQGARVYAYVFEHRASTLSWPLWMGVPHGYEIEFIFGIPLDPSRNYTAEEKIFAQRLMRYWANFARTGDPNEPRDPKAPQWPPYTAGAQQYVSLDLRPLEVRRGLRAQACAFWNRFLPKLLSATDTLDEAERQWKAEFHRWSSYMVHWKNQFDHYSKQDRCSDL
# [3] = target: Acetylcholinesterase (Homo sapiens) (UniProt P22303); assay: Mixed type inhibition of AChE (unknown origin) assessed as decrease in Vmax by Lineweaver-Burk plot analysis
# PC-12 = assay: Cytotoxicity against rat PC12 cells assessed as effect on cell viability at <12.5 uM by CCK8 assay; format: cell-based
# [4] = target: Acetylcholinesterase (Homo sapiens) (UniProt P22303); assay: Mixed type inhibition of AChE (unknown origin) assessed as increase in Km by Lineweaver-Burk plot analysis
# BV-2 = assay: Cytotoxicity against mouse BV-2 cells assessed as effect on cell viability at <12.5 uM by CCK8 assay; format: cell-based
# Sequence of Acetylcholinesterase (O42275 whole entry): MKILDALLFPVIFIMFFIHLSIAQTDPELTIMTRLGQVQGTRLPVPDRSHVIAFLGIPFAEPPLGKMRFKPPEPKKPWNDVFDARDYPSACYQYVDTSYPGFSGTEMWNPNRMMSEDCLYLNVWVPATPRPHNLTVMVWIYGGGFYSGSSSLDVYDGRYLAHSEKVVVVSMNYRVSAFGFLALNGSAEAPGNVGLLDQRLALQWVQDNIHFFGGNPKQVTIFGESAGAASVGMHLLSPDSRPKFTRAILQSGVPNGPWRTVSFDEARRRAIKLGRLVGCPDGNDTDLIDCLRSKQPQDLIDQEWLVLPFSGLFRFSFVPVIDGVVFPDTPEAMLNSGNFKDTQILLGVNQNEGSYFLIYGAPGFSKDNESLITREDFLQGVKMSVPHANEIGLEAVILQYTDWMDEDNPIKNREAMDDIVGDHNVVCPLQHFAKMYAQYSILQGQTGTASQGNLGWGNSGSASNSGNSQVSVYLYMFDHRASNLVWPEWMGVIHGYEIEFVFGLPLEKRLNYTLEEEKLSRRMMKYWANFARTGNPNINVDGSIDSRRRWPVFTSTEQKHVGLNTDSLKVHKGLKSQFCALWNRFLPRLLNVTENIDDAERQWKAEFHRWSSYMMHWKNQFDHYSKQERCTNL
SMILES,IC50 (Acetylcholinesterase),IC50 [1],IC50 (Cholinesterase),inhibition [2],inhibition [3],Activity (PC-12),inhibition [4],Activity (BV-2)
Cc1cc2nc3n(c(=O)c2cc1NC(=O)c1cc2cc(F)ccc2[nH]1)CCC3,1350 nM,3270 nM,1720 nM,,,,,
O=C(Nc1ccc2nc3n(c(=O)c2c1)CCC3)c1cc2ccccc2s1,2510 nM,2300 nM,1900 nM,,,,,
Cc1cc2nc3n(c(=O)c2cc1NC(=O)c1cc2cc(Cl)ccc2[nH]1)CCC3,1080 nM,5100 nM,4670 nM,,,,,
COc1ccc2[nH]c(C(=O)Nc3ccc4nc5n(c(=O)c4c3)CCC5)cc2c1,120 nM,1210 nM,150 nM,80%,Active,Non-Toxic,Active,Non-Toxic
O=C(Nc1ccc2nc3n(c(=O)c2c1)CCC3)c1cc2cc(F)ccc2[nH]1,780 nM,1560 nM,750 nM,61.8%,,,,
COc1ccc2[nH]c(C(=O)Nc3cc4c(=O)n5c(nc4cc3C)CCC5)cc2c1,2080 nM,6100 nM,5230 nM,,,,,
O=C(CCCc1cc2ccccc2[nH]1)Nc1ccc2nc3n(c(=O)c2c1)CCC3,6350 nM,5270 nM,1600 nM,,,,,
O=C(Cc1cc2ccccc2[nH]1)Nc1ccc2nc3n(c(=O)c2c1)CCC3,980 nM,1620 nM,1380 nM,,,,,
O=C(Nc1ccc2nc3n(c(=O)c2c1)CCC3)c1cc2cc(Cl)ccc2[nH]1,260 nM,1690 nM,770 nM,52.1%,,,,
O=C(Nc1ccc2nc3n(c(=O)c2c1)CCC3)c1cc2ccccc2[nH]1,1560 nM,2160 nM,900 nM,,,,,
O=C(/C=C/c1cc2ccccc2[nH]1)Nc1ccc2nc3n(c(=O)c2c1)CCC3,1650 nM,3090 nM,4470 nM,,,,,
O=C(Nc1ccc2nc3n(c(=O)c2c1)CCC3)c1cc2ccccc2o1,1510 nM,3260 nM,1850 nM,,,,,
